Earlier results, collected in patent US20220218650A1, “COMPOSITION AND METHOD FOR TREATING PAIN” (Zelira Therapeutics Operations Pty Ltd, priority 2018, published 2022).

Details: treatment group (5 mg THC); control group 74 mg; difference not statistically significant (n=105)

CCCCCc1cc(O)c2c(c1)OC(C)(C)[C@@H]1CCC(C)=C[C@@H]21 [dronabinol]
Median dose of micro-opioid agonist piritramide in the two days post surgery: 54 mg
